Results taken from patent US7528132B2, “Kinase inhibitors” (Schering Corporation, priority 2005, dated 2009).
Like-named read-outs stand apart in the source and are kept apart here.

Molecular target: T1, Akt1 (Homo sapiens, UniProt P31749)
T1 construct: made in house; host or cells: Sf9 insect cells (baculovirus, pBlueBacHis2B)
Assay: Akt1 kinase assay (33P phosphorylation of biotinylated peptide, Flash plates)
Format: biochemical
Settings: for inhibition at 1.1 µg/mL: assayed at a concentration of 1.1 mcg/mL
Excerpt: The assay described below measures the phosphorylation of a biotinylated peptide by active recombinant Akt1 and other kinase isoforms. The biotinylated peptide contains a consensus sequence derived from Akt substrate Gsk3 (Glycogen synthase kinase 3). The ^33P-labeled peptide substrate was captured by streptavidin-coated Flash plates.
Active recombinant Akt1 was expressed in Sf9 insect cells and purified as described by Kumar et al., Biochim. Biophys. Acta. Jun. 15, 2001, 1526(3), 257-268. Biotinylated peptide of the sequence Bio-ahx-RPRAASF was purchased from Syn Pep (Dublin, Calif., USA).
Cloning and Expression of Human Akt1 Sf9 Cells
Human Akt1 cDNA was amplified from a marathon-ready human lung cDNA library (Clonetech) using nested oligo primers as described below. The first round of amplification was carried out using the following primers; Akt1F1 ([…]) and Akt1R1 (TCCATC […]) and for the second round amplification, the primers of the following sequence were used; Akt1F2 (GGATCCTCGG […]) and AKT1R2 (GGTACCATCGTC […]). The PCR product was subcloned into pCRScript plasmid as a BamHI/KpnI fragment and the sequence of the cDNA was confirmed by DNA sequencing. This plasmid was used as a template for reamplification of Akt1 using appropriate primers for subcloning into pBlueBaHis2B into BamH1/EcoRI sites to generate an in frame fusion to (His)6 tag and an anti-Xpress antibody epitope tag at the N-terminus. This construct was sequenced to verify the junction sequences and used for generating a recombinant baculovirus. Growth of the recombinant virus, amplification and determination of viral titer were carried out according to the instructions from the manufacturer (InVitrogen, CA).
Purification of Akt1 from Sf9 Cells
Viral stocks were used to infect large scale Sf9 cells at a multiplicity of infection (MOI) of 2.5. Cells were maintained at 27° C. for 60 h and okadaic acid was added to the cultures to a concentration of 50 nM. Cells were harvested 4 h hours later by centrifugation at 1200 rpm for 30 min followed by freezing at −80° C. until further use. All purification steps were carried out at 4° C. Whole cell pellets were suspended in buffer A (20 mM sodium phosphate buffer pH 7.8, 500 mM NaCl, 1 mM sodium vanadate, 5 mM sodium fluoride, 40 mM β-glycerophosphate, 10 mM imidazole and protease inhibitor cocktail) and lysed using a microfluidizer. The cell extract was centrifuged at 16,000×g for 10 min to remove the debris and directly loaded onto Ni-NTA Superflow resin using a FPLC pump operated at 1 ml/min. The column was washed once with buffer A, once with wash buffer B (20 mM sodium phosphate pH 6.0, 1 mM sodium vanadate, 5 mM sodium fluoride and protease cocktail) and once with wash buffer B containing 0.05% Tween-20 followed by washing with buffer A until OD260 returned to basal level. Proteins were eluted with buffer A containing 200 mM imidazole. Fractions were analyzed by electrophoresis on 10% denaturing polyacrylamide gels and fractions containing 85% pure protein band at 60 KDa were pooled and dialyzed against buffer C (20 mM Tris-HCl pH 7.5, 0.5 mM EDTA,-2 mM DTT, 145 mM NaCl, 0.1 mM sodium vanadate, 5 mM sodium fluoride, 10 mM, β-glycerophosphate and 20% glycerol). Purified protein was stored as aliquots at −80° C. Protein concentrations were determined using BCA protein assay reagent A (Catalog #23228). To examine the identity of the proteins, 2 μg of purified protein was electrophoresed on SDS-polyacrylamide gels and stained with coomassie blue dye or transferred to nitrocellulose membrane and probed with anti-Akt and anti-phospho-specific Akt antibodies using enhanced chemiluminescence (ECL) reagent according to the protocol described by the manufacturer (Amersham).
The kinase assay was performed in 96 well plates at room temperature. Assay solutions and plates were preincubated at room temperature for 5 min. […]

[1] = read-out: IC50 rating (AKT1 inhibition)
[2] = read-out: IC50 (AKT1 inhibition)

T1 sequence (P31749 whole entry): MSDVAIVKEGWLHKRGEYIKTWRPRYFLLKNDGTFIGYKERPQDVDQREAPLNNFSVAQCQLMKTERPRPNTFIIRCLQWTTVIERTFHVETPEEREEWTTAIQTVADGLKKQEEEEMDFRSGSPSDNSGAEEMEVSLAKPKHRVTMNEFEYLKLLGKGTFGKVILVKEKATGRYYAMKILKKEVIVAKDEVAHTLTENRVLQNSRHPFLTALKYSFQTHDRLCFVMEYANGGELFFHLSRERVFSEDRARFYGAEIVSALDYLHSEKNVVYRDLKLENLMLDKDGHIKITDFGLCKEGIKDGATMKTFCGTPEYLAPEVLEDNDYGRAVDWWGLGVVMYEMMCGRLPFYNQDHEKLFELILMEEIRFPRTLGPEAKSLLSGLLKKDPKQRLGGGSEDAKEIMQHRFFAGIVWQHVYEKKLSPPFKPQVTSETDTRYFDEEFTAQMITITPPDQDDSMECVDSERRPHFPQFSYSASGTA

IC50 [1]	inhibition at 1.1 µg/mL	IC50 [2]	SMILES
0.1 to 1 µM	–	–	Cc1n[nH]c2ccc(-c3nnc(N)c(N4CCNCC4)n3)cc12 [Compound 1, 6-amino-3-(3-methylindazol-5-yl)-5-(piperazin-1-yl)-[1,2,4]triazine]
> 1 µM	–	–	Cc1n[nH]c2ccc(-c3nnc(N)c(O)n3)cc12 [Compound 2]
< 0.1 µM	> 90%	–	Cc1n[nH]c2ccc(-c3nnc(NCc4ccccc4)c(N4CCNCC4)n3)cc12 [Compound 3, 6-benzylamino-3-(3-methylindazol-5-yl)-5-(piperazin-1-yl)-[1,2,4]triazine]
> 1 µM	–	–	Cc1n[nH]c2ccc(-c3nnc(N(Cc4ccccc4)Cc4ccccc4)c(N4CCNCC4)n3)cc12 [Compound 4, 6-dibenzylamino-3-(3-methylindazol-5-yl)-5-(piperazin-1-yl)-[1,2,4]triazine]
< 0.1 µM	> 90%	–	Cc1n[nH]c2ccc(-c3nnc(N)c(N4CCN[C@@H](Cc5ccccc5)C4)n3)cc12 [Compound 5, 6-amino-5-[(S)-3-benzylpiperazin-1-yl]-3-(3-methylindazol-5-yl)-[1,2,4]triazine]
0.1 to 1 µM	–	–	Cc1n[nH]c2ccc(-c3nnc(N)c(N4CCN[C@H](c5ccccc5)C4)n3)cc12 [Compound 6, 6-amino-3-(3-methylindazol-5-yl)-5-[(R)-3-phenylpiperazin-1-yl]-[1,2,4]triazine]
< 0.1 µM	> 90%	–	Cc1n[nH]c2ccc(-c3nnc(N)c(N4CCN[C@@H](C(C)C)C4)n3)cc12 [Compound 7, 6-amino-5-[(S)-3-isopropylpiperazin-1-yl]-3-(3-methylindazol-5-yl)-[1,2,4]triazine]
< 0.1 µM	> 90%	–	Cc1n[nH]c2ccc(-c3nnc(N)c(N4CCN[C@@H](CC(C)C)C4)n3)cc12 [Compound 8, 6-amino-5-[(S)-3-isobutylpiperazin-1-yl]-3-(3-methylindazol-5-yl)-[1,2,4]triazine]
> 1 µM	–	–	Cc1n[nH]c2ccc(-c3nnc(N)c(N4CCN[C@H](C)C4)n3)cc12 [Compound 9, 6-amino-3-(3-methylindazol-5-yl)-5-[(R)-3-methylpiperazin-1-yl]-[1,2,4]triazine]
0.1 to 1 µM	> 90%	–	Cc1n[nH]c2ccc(-c3nnc(N)c(N4CCCNCC4)n3)cc12 [Compound 10, 6-amino-5-([1,4]diazepan-1-yl)-3-(3-methylindazol-5-yl)-[1,2,4]triazine]
> 1 µM	–	–	Cc1n[nH]c2ccc(-c3nnc(N)c(N4CC5CC4CN5)n3)cc12 (stereo not shown) [Compound 11, 6-amino-5-(2,5-diazabicyclo[2.2.1]hept-2-yl)-3-(3-methylindazol-5-yl)-[1,2,4]triazine]
< 0.1 µM	> 90%	0.0026 µM	Cc1n[nH]c2ccc(-c3nncc(N4CCN[C@@H](Cc5ccccc5)C4)n3)cc12 [Compound 12, 3-(3-methylindazol-5-yl)-5-[(S)-3-benzylpiperazin-1-yl]-[1,2,4]triazine]
< 0.1 µM	> 90%	–	Cc1n[nH]c2ccc(-c3nnc(Cl)c(N4CCN[C@@H](Cc5ccccc5)C4)n3)cc12 [Compound 13, 5-[(S)-3-benzylpiperazin-1-yl]-6-chloro-3-(3-methylindazol-5-yl)-[1,2,4]triazine]
0.1 to 1 µM	–	–	Cc1n[nH]c2ccc(-c3nnc(N)c(N4CCN[C@@H](C)C4)n3)cc12 [Compound 14, 6-amino-3-(3-methylindazol-5-yl)-5-[(S)-3-methylpiperazin-1-yl]-[1,2,4]triazine]
0.1 to 1 µM	–	–	Cc1n[nH]c2ccc(-c3nnc(NCc4ccccc4)c(N4CCN[C@@H](C)C4)n3)cc12 [Compound 15, 6-benzylamino-3-(3-methylindazol-5-yl)-5-[(S)-3-methylpiperazin-1-yl]-[1,2,4]triazine]
< 0.1 µM	> 90%	–	Cc1n[nH]c2ccc(-c3nnc(NCc4ccccc4)c(N4CCN[C@@H](C(C)C)C4)n3)cc12 [Compound 16, 6-benzylamino-5-[(S)-3-isopropylpiperazin-1-yl]-3-(3-methylindazol-5-yl)-[1,2,4]triazine]
> 1 µM	–	–	Cc1n[nH]c2ccc(-c3nnc(NCc4ccccc4)c(N4CCN[C@@H](CC(C)C)C4)n3)cc12 [Compound 17, 6-benzylamino-5-[(S)-3-isobutylpiperazin-1-yl]-3-(3-methylindazol-5-yl)-[1,2,4]triazine]
> 1 µM	–	–	Cc1n[nH]c2ccc(-c3nnc(NCc4ccccc4)c(N4CCN[C@@H](Cc5ccccc5)C4)n3)cc12 [Compound 18, 6-Benzylamino-5-[(S)-3-benzylpiperazin-1-yl]-3-(3-methylindazol-5-yl)-[1,2,4]triazine]
< 0.1 µM	–	–	Cc1n[nH]c2ccc(-c3nncc(N4CCN[C@@H](C(C)C)C4)n3)cc12 [Compound 19, 5-[(S)-3-isopropylpiperazin-1-yl]-3-(3-methylindazol-5-yl)-[1,2,4]triazine]
< 0.1 µM	> 90%	–	Cc1n[nH]c2ccc(-c3nnc(Cl)c(N4CCN[C@@H](C(C)C)C4)n3)cc12 [Compound 20, 6-chloro-5-[(S)-3-isopropylpiperazin-1-yl]-3-(3-methylindazol-5-yl)-[1,2,4]triazine]
0.1 to 1 µM	–	–	Cc1n[nH]c2ccc(-c3nncc(N4CCN[C@@H](Cc5c[nH]c6ccccc56)C4)n3)cc12 [Compound 21, 5-[(S)-3-(3-indolylmethyl)piperazin-1-yl]-3-(3-methylindazol-5-yl)-[1,2,4]triazine]
> 1 µM	–	–	Cc1n[nH]c2ccc(-c3nnc(Cl)c(N4CCN[C@@H](Cc5c[nH]c6ccccc56)C4)n3)cc12 [Compound 22, 6-chloro-5-[(S)-3-(3-indolylmethyl)piperazin-1-yl]-3-(3-methylindazol-5-yl)-[1,2,4]triazine]
< 0.1 µM	> 90%	0.0054 µM	Cc1n[nH]c2ccc(-c3nncc(N4CCN[C@@H](CC(C)C)C4)n3)cc12 [Compound 23, 5-[(S)-3-isobutylpiperazin-1-yl]-3-(3-methylindazol-5-yl)-[1,2,4]triazine]
< 0.1 µM	> 90%	–	Cc1n[nH]c2ccc(-c3nnc(Cl)c(N4CCN[C@@H](CC(C)C)C4)n3)cc12 [Compound 24, 6-chloro-5-[(S)-3-isobutylpiperazin-1-yl]-3-(3-methylindazol-5-yl)-[1,2,4]triazine]
> 1 µM	–	–	Cc1n[nH]c2ccc(-c3nnc(Cl)c(N4CCN[C@@H](COCc5ccccc5)C4)n3)cc12 [Compound 25, 5-[(R)-3-(benzyloxymethyl)piperazin-1-yl]-6-chloro-3-(3-methylindazol-5-yl)-[1,2,4]triazine]
> 1 µM	–	–	Cc1n[nH]c2ccc(-c3nncc(N4CCN[C@@H](COCc5ccccc5)C4)n3)cc12 [Compound 26, 5-[(R)-3-(benzyloxymethyl)piperazin-1-yl]-3-(3-methylindazol-5-yl)-[1,2,4]triazine]
> 1 µM	–	–	Cc1n[nH]c2ccc(-c3nncc(N4CCN[C@@H](CO)C4)n3)cc12 [Compound 27]
< 0.1 µM	–	–	Cc1n[nH]c2ccc(-c3nncc(N4CCN(C)[C@@H](Cc5ccccc5)C4)n3)cc12 [Compound 28, 5-[(S)-3-benzyl-4-methyl-piperazin-1-yl]-3-(3-methylindazol-5-yl)-[1,2,4]triazine]
> 1 µM	–	–	Cc1n[nH]c2ccc(-c3nncc(N4CCN5CCCC5C4)n3)cc12 (stereo not shown) [Compound 29, 5-(1,4-diazabicyclo[4.3.0]non-1-yl)-3-(3-methylindazol-5-yl)-[1,2,4]triazine]
> 1 µM	–	–	Cc1n[nH]c2ccc(-c3nncc(N4CCN5CCCCC5C4)n3)cc12 (stereo not shown) [Compound 30, 5-(1,4-diazabicyclo[4.4.0]dec-1-yl)-3-(3-methylindazol-5-yl)-[1,2,4]triazine]
